# Measurements reported in patent US20100197642A1, “SLOW RELEASE MISOPROSTOL FOR OBSTETRIC AND/OR GYNAECOLOGICAL APPLICATIONS” (priority 2007, published 2010).
# Columns and labels:
# [1] = Pharmacokinetic study of misoprostol acid (MPA) plasma levels after SR oral, sublingual or vaginal misoprostol; assay type: in vivo, women; conditions: 400 μg
# Experimental: A study was performed with healthy women ≧18 years with a viable intrauterine pregnancy of up to 12 weeks (47-83 days) of gestation who had requested termination of pregnancy by vacuum aspiration.
# After giving their informed consent, eligible women were allocated randomly to the three treatment groups using computer generated random tables and numbered, sealed, opaque envelopes opened consecutively. […] The SR misoprostol tablets were swallowed with a small amount of water. Women allocated to vaginal misoprostol treatment inserted the tablets intravaginally themselves.
# The women were admitted to hospital in the morning after fasting overnight.
# The blood samples were immediately cooled in a refrigerator at +6° C. for 30-60 minutes and thereafter centrifuged in a cooled centrifuge for 10 minutes at 3000 rpm. The plasma was then drawn from the blood samples and stored at below −20° C. for further analyses. […]
# AUC was calculated according to the trapezoidal method, by dividing the area under the curve into trapezium segments according to the time intervals of blood sampling. […] The AUC720 was calculated by summation of the trapezium segments. Pulse, blood pressure and temperature were measured repeatedly and side-effects such as nausea, abdominal pain, skin rash or diarrhoea were recorded, as well as any analgesics given. […]
# [2] = cited from earlier work
smiles,measurement,setting,value
"CCCCC(C)(O)C/C=C/[C@H]1[C@H](O)CC(=O)[C@@H]1CCCCCCC(=O)OC (mixture of isomers) [misoprostol, (±) methyl 7-[3-(α-hydroxy-2-β-(4(RS)-4-hydroxy-4-methyl-trans-1-octen-1-yl)-oxycyclopent-1α-yl]heptanoate]",cumulative AUC of MPA over time (FIG. 2),[1]; sublingual group,did not continue to rise after 6 hours
same,cumulative AUC of MPA over time (FIG. 2),[1]; vaginal group,did not continue to rise after 6 hours
same,time at which plasma misoprostol level peaks,[2]; 400 μg oral misoprostol,about 30 minutes
same,time after administration with detectable levels of MPA remaining,[2]; vaginal administration,6 h
same,time to maximum plasma level,[2]; vaginal administration,70 to 80 min
